Like-named read-outs stand apart in the source and are kept apart here.
How the values were obtained:
PHH spheroids = details: 96-well format, medium similar to WEHG; ref Vorrink et al., 2018; cited from earlier work
[1] = test system: primary human hepatocytes (PHH) spheroids; details: 14 days of treatment, preliminary
Description: To compare how the best performing media influenced the DILI response, a similar approach but in the 384-well format we performed a preliminary hepatotoxicity study (Figure S6). Five prototypic compounds from the previous study were tested in HMM, WENG, and WENG+ media. […] Hepatotoxicity was evaluated after chronic exposure to each of the five drug compounds at 1×, 5×, and 20× times their clinical Cmax concentrations for two weeks, as outlined by [Vorrink et al., (2018)].
ATP conent (expressed as relative light units; RLU) was used to measure the energy status of the PHH spheroids. The spheroids were incubated in AccuMax cell dissociation solution (Thermo Fisher Scientific) for 30 min at 37°C followed by centrifugation at 100 x g for 5 min. The CellTiter-Glo3D assay (Promega, Madison, Wisconsin) was used, with slight modifications. Briefly, the plate was first left for 30 min at room temperature for temperature equilibration. Thereafter CellTiter-Glo® 3D was added, and the plate left in room temperature for another 20 min on a horizontal plate shaker. The luminescence was measured on a Spark plate reader (TECAN). The results are presented as mean values +/- SD of eight technical replicates performed on three independent occasions.
Preliminary studies of hepatotoxicity were conducted as previously described for the 96-well format ([Vorrink et al., 2018]). Briefly, PHHs were cultured in 384-well plates in HMM, WENG or WENG+ media for 1 week to form spheroids. The compounds were dissolved in dimethyl sulfoxide (DMSO), and added to the wells at a final DMSO concentration of 0.5%. As in the Vorrink et al. study, final concentrations of 1×, 5×, and 20× times the clinical Cmax of the compounds were used The exposure medium was changed every 48–72h for the 14 days of treatment. On the last day, PHH viability was assessed by measurement of ATP content (see above) and a viability below 80% of control levels was considered hepatotoxic ([Vorrink et al., 2018]).

albumin = details: ref Davies and Anderson, 1997; U. S. Food and Drug Administration, 2019; cited from earlier work
[2] = all media (HMM, WENG, WENG+), all concentrations (1×, 5×, 20× clinical Cmax), controls gave correct results
[3] = WENG+ medium (zinc-supplemented), 1×, 5×, 20× clinical Cmax

SMILES	DILI classification in the previous study (PHH spheroids)	Hepatotoxicity (DILI signal; viability below 80% of control levels considered hepatotoxic) [1, 2]	Hepatotoxicity (DILI signal; viability below 80% of control levels considered hepatotoxic) [1, 3]	further results
Cn1cnc([N+](=O)[O-])c1Sc1ncnc2nc[nH]c12 [azathioprine]	DILI-positive	positive		
CN(C)CCCN1c2ccccc2Sc2ccc(Cl)cc21 [chlorpromazine]	DILI-positive		did not show a DILI signal	
O=C(O)Cc1ccccc1Nc1c(Cl)cccc1Cl [diclofenac]	DILI-positive		did not show a DILI signal	
OC(Cn1cncn1)(Cn1cncn1)c1ccc(F)cc1F [fluconazole]	false DILI-negative		false negative response	Hepatotoxicity (DILI signal; viability below 80% of control levels considered hepatotoxic) ([1]; HMM medium, 1×, 5×, 20× clinical Cmax): strong DILI signal; Hepatotoxicity (DILI signal; viability below 80% of control levels considered hepatotoxic) ([1]; WENG medium, 1×, 5×, 20× clinical Cmax): strong DILI signal
Cc1ncc2n1-c1ccc(Cl)cc1C(c1ccccc1F)=NC2 [midazolam]				Binding to albumin (albumin): highly bound
CC(=O)CC(c1ccccc1)c1c(O)c2ccccc2oc1=O (stereo not drawn) [warfarin]		negative		

From PMC8551077, “Conditions for maintenance of hepatocyte differentiation and function in 3D cultures” (iScience, 2021)
